Four molecules from patent EP4663640A1 (Shanghai Institute of Materia Medica, Chinese Academy of …, priority 2023, dated 2024) can be followed below.

Where two headings read alike, the source gives them in different places.

Holding throughout (format): cell-based
The target of one series is T1, hTRPC3 (Homo sapiens, UniProt Q13507).
T1 construct: expressed in transfected cells; host or cells: HEK-293
T1 sequence (Q13507 1-921): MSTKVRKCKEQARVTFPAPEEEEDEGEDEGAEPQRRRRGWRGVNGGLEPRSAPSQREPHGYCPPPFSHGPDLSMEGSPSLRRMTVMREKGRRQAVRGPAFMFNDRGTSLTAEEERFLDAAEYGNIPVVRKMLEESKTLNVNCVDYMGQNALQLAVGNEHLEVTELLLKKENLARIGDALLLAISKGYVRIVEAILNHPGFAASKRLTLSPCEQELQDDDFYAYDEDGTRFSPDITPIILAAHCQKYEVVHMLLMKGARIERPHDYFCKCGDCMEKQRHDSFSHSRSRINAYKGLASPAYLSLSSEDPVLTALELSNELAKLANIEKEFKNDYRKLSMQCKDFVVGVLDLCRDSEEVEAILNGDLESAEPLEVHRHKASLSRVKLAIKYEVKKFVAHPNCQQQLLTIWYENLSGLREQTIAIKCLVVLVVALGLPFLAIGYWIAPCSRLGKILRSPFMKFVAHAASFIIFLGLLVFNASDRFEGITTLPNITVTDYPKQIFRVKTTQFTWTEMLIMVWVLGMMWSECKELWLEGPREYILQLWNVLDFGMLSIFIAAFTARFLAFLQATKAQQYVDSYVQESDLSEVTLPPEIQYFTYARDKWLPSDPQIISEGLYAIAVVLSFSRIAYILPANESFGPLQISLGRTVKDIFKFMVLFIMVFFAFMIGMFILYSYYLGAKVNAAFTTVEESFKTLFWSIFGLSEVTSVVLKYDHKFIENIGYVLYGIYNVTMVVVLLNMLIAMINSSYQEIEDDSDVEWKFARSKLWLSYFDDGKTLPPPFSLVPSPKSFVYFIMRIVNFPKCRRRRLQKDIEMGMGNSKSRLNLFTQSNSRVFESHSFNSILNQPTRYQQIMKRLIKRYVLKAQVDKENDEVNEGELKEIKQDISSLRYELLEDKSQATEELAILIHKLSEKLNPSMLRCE
Briefly: TRPC3 inhibitory activity assay (FLIPR calcium fluorescence). The following applies: for relative selectivity TRPC3/ TRPC5: ratio of IC50 values. The method, then:
HEK-293 cells expressing hTRPC3, hTRPC4 or hTRPC5 were seeded into black-bottomed 96-well plates coated with poly-lysine (PDL), with 2×10^4 cells per well. After 8 h of culture, the original culture medium was discarded, and 60 µL of Fluo-4/AM dye with a final concentration of 4 µM was added. The plates were incubated at 37 °C for 60 min, and then rinsed five times with calcium flow detection buffer. […] Then, the agonist Englerin A (EA) (MedChemExpress, Shanghai, China, final concentration of 0.3nM) was added, and the fluorescence signal was collected for 600 seconds. The fluorescence signal of the trajectory diagram is represented by F/F0, wherein F is the fluorescence signal at different time points, and F0 is the basic fluorescence signal, that is, the average value of the fluorescence signal at the first 10 time points. […] The area under the curve of the change in fluorescence intensity after adding EA was calculated. IC50 value was calculated using log[Inhibitor] vs. response - Variable slope, taking into account the area under the curve and the log value of the concentration of the compound.

For the next series, the target named is T2, hERG channel (Homo sapiens, UniProt Q12809).
T2 construct: expressed in transfected cells; host or cells: CHO
T2 sequence (Q12809 whole entry): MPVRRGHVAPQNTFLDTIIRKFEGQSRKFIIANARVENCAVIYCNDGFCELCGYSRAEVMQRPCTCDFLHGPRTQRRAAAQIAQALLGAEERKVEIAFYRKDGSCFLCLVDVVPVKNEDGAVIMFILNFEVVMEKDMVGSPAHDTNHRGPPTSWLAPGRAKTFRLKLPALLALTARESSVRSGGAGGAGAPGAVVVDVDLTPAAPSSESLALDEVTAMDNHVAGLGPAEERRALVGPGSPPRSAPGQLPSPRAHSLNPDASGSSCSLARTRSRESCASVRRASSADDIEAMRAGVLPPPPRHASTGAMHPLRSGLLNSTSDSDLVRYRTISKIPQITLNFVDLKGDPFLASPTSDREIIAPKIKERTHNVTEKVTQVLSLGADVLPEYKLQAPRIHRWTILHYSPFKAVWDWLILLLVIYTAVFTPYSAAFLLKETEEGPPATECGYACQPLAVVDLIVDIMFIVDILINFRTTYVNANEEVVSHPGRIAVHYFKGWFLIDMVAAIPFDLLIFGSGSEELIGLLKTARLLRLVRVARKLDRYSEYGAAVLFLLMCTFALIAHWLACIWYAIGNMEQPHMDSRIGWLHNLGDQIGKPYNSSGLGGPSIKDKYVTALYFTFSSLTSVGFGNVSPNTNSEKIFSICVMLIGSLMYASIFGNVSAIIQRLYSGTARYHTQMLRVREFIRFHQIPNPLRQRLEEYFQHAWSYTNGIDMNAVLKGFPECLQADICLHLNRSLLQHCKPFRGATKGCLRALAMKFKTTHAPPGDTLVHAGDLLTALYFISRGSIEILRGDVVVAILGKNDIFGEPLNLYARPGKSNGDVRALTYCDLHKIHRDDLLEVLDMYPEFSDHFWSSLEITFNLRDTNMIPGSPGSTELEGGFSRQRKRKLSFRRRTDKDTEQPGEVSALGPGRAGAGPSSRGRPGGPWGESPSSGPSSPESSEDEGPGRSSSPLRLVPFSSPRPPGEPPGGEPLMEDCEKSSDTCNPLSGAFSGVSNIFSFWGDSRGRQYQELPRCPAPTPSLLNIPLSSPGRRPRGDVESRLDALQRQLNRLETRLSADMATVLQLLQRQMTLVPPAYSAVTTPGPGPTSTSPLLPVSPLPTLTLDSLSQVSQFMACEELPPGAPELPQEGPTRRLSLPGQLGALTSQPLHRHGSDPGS
As to the kind of experiment: hERG channel inhibition assay (Qpatch whole-cell recording, CHO cells expressing hERG). The following applies: for IC50: Table 3, highest test concentration 40 µM, read-out: inhibitory activity IC50 hERG. The protocol: (§1) CHO cells expressing hERG protein were cultured in 175cm^2 culture flasks. When the cell density grew to 60-80%, the culture medium was removed, and the cells were washed with 7mL PBS, and then 3mL Detachin was added for digestion. After digestion was complete, 7mL culture medium was added for neutralization, and then centrifuged, the supernatant was aspirated, and 5mL culture medium was added for resuspending to ensure that the cell density was 2-5×10^6/mL.
(§2) The single-cell high-impedance sealing and whole-cell pattern formation process were all automatically completed by the Qpatch instrument. After obtaining the whole-cell recording mode, the cell was clamped at -80 mV. […] This voltage stimulus was applied every 15 seconds. After recording for 2 minutes, the extracellular solution was recorded for 2 minutes, and then the drug administration process began. The compound concentration started from the lowest test concentration, and each test concentration was given for 2 minutes. After all concentrations were given continuously, the positive control compound 10 µM Cisapride was given. At least 3 cells (n≥3) were tested for each concentration.
(§3) The stock solution of compound was diluted with extracellular solution, 5 µL of 20 mM compound stock solution was added to 2495 µL of extracellular solution, 500 times diluted to 40 µM, and then 3 times serial dilution was performed in the extracellular solution containing 0.2% DMSO to obtain the final concentration to be tested.
(§4) (5) Data analysis: The experimental data were analyzed by XLFit software.
(hERG is a cardiac potassium channel; its block is linked to QT prolongation.)

Series [1] addresses T3, hERG channel (relative to TRPC5) (Homo sapiens, UniProt Q12809).
T3 construct: expressed in transfected cells; host or cells: CHO
The series is described as above. The settings on record: human, CHO cells expressing hERG; ratio of IC50 values. The protocol:
as §1, §2, §3, §4

Setting [2] is: Table 3, read-out: inhibitory activity IC50 TRPC3.

T3 sequence (Q12809 whole entry): as above

For the molecule `Cn1c(=O)n(CCCO)c(=O)c2c1nc(C1(F)CCC(C(F)(F)F)CC1)n2Cc1ccc(Cl)cc1` (centres unmarked) [Example E21, 7-(4-chlorobenzyl)-8-(1-fluoro-4-(trifluoromethyl)cyclohexyl)-1-(3-hydroxypropyl)-3-methyl-3,7-dihydro-1H-purine-2,6-dione], the IC50 (commonly the point on the concentration scale where inhibition reaches its midpoint) on hTRPC3 (setting [2]) was 2.83 µM; on hERG channel it was > 40 µM. The “relative selectivity TRPC3/ TRPC5” value on hTRPC3 is listed as 555. The selectivity ratio at 2 min in series [1] was > 7840.
Turning to `COC1CCC(F)(c2nc3c(c(=O)n(CCCO)c(=O)n3C)n2Cc2ccc(Cl)cc2)CC1` (centres unmarked) [Example E32, 7-(4-chlorobenzyl)-8-(1-fluoro-4-methoxycyclohexyl)-1-(3-hydroxypropyl)-3-methyl-3,7-dihydro-1H-purine-2,6-dione], the figures for the IC50 on hTRPC3 (setting [2]) and at hERG channel were > 10 µM and 7.52 µM, respectively. Further, the “relative selectivity TRPC3/ TRPC5” value at hTRPC3 is reported as > 980. In series [1], the selectivity ratio at 2 min was 737.
With `Cn1c(=O)n(CCCO)c(=O)c2c1nc(C1(F)CCC(C(F)(F)F)CC1)n2Cc1ccc(F)c(F)c1` (centres unmarked) [Example E52], at hTRPC3, the IC50 is 2.53 µM and the “relative selectivity TRPC3/ TRPC5” value was 1946. The IC50 on hERG channel was > 40 µM. Besides, on hERG channel (ratio of IC50 values, read-out: relative selectivity hERG/ TRPC5), the selectivity ratio is > 30800.
In the case of `Cn1c(=O)n(CCCO)c(=O)c2c1nc(C1(F)CCC(F)(F)CC1)n2Cc1ccc(F)c(Cl)c1` [Example E68, 7-(3-chloro-4-fluorobenzyl)-1-(3-hydroxypropyl)-3-methyl-8-(1,4,4-trifluorocyclohexyl)-3,7-dihydro-1H-purine-2,6-dione], the IC50 on hERG channel was > 40 µM. In addition, the selectivity ratio at 2 min in series [1] is > 69000.
